Tests used:
[1] = target: T1, Carboxylesterase 1 isoform b (Ces1b) (Homo sapiens, UniProt P23141); assay: inhibition of Amplex Red to resorufin conversion by recombinant Ces1b (fluorescence); assay type: biochemical
T1 construct: gene CES1
T1 sequence (P23141 18-567): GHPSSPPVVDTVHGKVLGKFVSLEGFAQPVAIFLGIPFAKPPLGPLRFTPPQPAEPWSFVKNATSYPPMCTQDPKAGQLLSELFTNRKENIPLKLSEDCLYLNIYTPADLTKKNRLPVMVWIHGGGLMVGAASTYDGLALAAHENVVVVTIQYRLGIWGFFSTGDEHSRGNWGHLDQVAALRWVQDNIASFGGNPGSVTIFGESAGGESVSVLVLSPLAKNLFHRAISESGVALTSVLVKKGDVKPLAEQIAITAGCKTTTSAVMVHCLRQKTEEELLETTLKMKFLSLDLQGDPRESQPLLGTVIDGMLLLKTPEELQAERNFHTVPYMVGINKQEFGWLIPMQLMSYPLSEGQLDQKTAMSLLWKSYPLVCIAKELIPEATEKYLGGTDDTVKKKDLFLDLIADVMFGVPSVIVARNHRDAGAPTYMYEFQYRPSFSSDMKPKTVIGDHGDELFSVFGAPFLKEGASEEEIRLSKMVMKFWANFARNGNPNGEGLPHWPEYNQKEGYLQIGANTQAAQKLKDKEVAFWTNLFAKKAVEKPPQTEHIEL

[2] = target: T1, Carboxylesterase 1 isoform b (Ces1b); assay: biochemical; conditions: read-out: % inhibition at 100 μM
[3] = target: T1, Carboxylesterase 1 isoform b (Ces1b); assay: dose response of Amplex Red to resorufin conversion by recombinant Ces1b (fluorescence); assay type: biochemical
purified protein = substrate: CC(=O)N1c2ccc(O)cc2Oc2cc(O)ccc21; assay: purified protein; conditions: docking: carbonyl carbon near Ser221, carbonyl oxygen in oxyanion hole of Gly142 and Gly143

Molecule `O=[N+]([O-])c1ccc(OP(=O)(O)Oc2ccc([N+](=O)[O-])cc2)cc1` [BNPP, bis(4-nitrophenyl)phosphate] has an IC50 [1] of about 150 nM.

`CN(C)C(=O)C(CCN1CCC(O)(c2ccc(Cl)cc2)CC1)(c1ccccc1)c1ccccc1` [LPM, Loperamide] showed an inhibition at 100 µM [2] of about 50%.

For `O=S(=O)(F)Cc1ccccc1` [PMSF, Phenylmethyl sulfonyl fluoride], the IC50 [3] was about 5000 nM.

B1: Carboxylesterase 1 isoform b (Ces1b) (Homo sapiens) (protein)
chain: GHPSSPPVVDTVHGKVLGKFVSLEGFAQPVAIFLGIPFAKPPLGPLRFTPPQPAEPWSFVKNATSYPPMCTQDPKAGQLLSELFTNRKENIPLKLSEDCLYLNIYTPADLTKKNRLPVMVWIHGGGLMVGAASTYDGLALAAHENVVVVTIQYRLGIWGFFSTGDEHSRGNWGHLDQVAALRWVQDNIASFGGNPGSVTIFGESAGGESVSVLVLSPLAKNLFHRAISESGVALTSVLVKKGDVKPLAEQIAITAGCKTTTSAVMVHCLRQKTEEELLETTLKMKFLSLDLQGDPRESQPLLGTVIDGMLLLKTPEELQAERNFHTVPYMVGINKQEFGWLIPMQLMSYPLSEGQLDQKTAMSLLWKSYPLVCIAKELIPEATEKYLGGTDDTVKKKDLFLDLIADVMFGVPSVIVARNHRDAGAPTYMYEFQYRPSFSSDMKPKTVIGDHGDELFSVFGAPFLKEGASEEEIRLSKMVMKFWANFARNGNPNGEGLPHWPEYNQKEGYLQIGANTQAAQKLKDKEVAFWTNLFAKKAVEKPPQTEHIEL
Work on B1 yielded a Km (purified protein) of 55 ± 12 µM.

Reference: article PMC4708625 (Free Radical Biology & Medicine, 2016)
